pIC50, pKi: −log10 of the molar value. “Also recorded” adds a separate entry of the source.
Key:
UGT2B7 = biological target: T1, UGT2B7 (Homo sapiens, UniProt P16662); assay: Inhibition of UGT2B7-catalyzed naloxone 3-β-D-glucuronidation in ultrapooled human liver microsomes; assay type: in vitro ADME
T1 construct: ultrapooled human liver microsomes (0.2 mg/mL); from tissue; host or cells: human liver microsomes (ultrapooled)
Description: (§1) The inhibitory potential of mertansine on UGT1A1, UGT1A3, UGT1A4, UGT1A6, UGT1A9, and UGT2B7 activities was evaluated using liquid chromatography–tandem mass spectrometry (LC-MS/MS) with a cocktail of UGT substrates and ultrapooled human liver microsomes. Each incubation mixture was prepared to a final volume of 100 μL as follows: ultrapooled human liver microsomes (0.2 mg/mL), 5 mM UDPGA, 10 mM magnesium chloride, alamethicin (25 μg/mL), 50 mM Tris buffer (pH 7.4), various concentrations of mertansine in methanol (final concentrations of 0.01–50 μM), and the cocktail sets of UGT enzyme-specific substrates. Two cocktail sets were used: set A contained 0.5 μM SN-38 for UGT1A1, 2 μM chenodeoxycholic acid for UGT1A3, and 0.5 μM trifluoperazine for UGT1A4; and set B contained 1 μM N-acetylserotonin for UGT1A6, 0.2 μM mycophenolic acid for UGT1A9, and 1 μM naloxone for UGT2B7. The reactions were initiated by adding UDPGA and incubated in a shaking water bath for 60 min at 37 °C. Reactions were terminated by adding 50 μL of ice-cold acetonitrile containing internal standards (IS, propofol glucuronide for set A and meloxicam for set B). Incubation mixtures were centrifuged at 13,000 g for 8 min at 4 °C. Next, 50 μL of each supernatant of sets A and B was mixed, and aliquots (5 μL) were analyzed using LC-MS/MS. […]

CYP2C8 = system: CYP2C8; set-up: method as in PMID 25048520, PMID 22752008; conditions: human liver microsomes, competitive; read-out: Ki, CYP2C8-mediated paclitaxel 6α-hydroxylation; cited from earlier work
UGT1A6 = biological target: T2, UGT1A6 (Homo sapiens, UniProt P19224); assay: Inhibition of UGT1A6-catalyzed N-acetylserotonin β-D-glucuronidation in ultrapooled human liver microsomes; assay type: in vitro ADME
T2 construct: ultrapooled human liver microsomes (0.2 mg/mL); from tissue; host or cells: human liver microsomes (ultrapooled)
T2 sequence (P19224 27-532): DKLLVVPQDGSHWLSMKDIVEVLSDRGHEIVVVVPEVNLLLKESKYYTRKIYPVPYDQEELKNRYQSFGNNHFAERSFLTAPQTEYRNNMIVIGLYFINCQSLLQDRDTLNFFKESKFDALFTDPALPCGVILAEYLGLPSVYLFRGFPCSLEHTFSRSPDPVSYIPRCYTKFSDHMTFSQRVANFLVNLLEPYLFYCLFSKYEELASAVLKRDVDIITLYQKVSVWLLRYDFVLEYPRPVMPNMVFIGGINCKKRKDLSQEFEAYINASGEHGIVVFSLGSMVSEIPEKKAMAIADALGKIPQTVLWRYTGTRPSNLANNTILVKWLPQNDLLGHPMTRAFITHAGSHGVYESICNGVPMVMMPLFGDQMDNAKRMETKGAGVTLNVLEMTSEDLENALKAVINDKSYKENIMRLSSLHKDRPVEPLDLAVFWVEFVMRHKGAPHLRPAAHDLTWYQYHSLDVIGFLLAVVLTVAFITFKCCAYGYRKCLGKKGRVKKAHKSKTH
Description: as §1

UGT1A9 = biological target: T3, UGT1A9 (Homo sapiens, UniProt O60656); assay: Inhibition of UGT1A9-catalyzed mycophenolic acid β-D-glucuronidation in ultrapooled human liver microsomes; assay type: in vitro ADME
T3 construct: ultrapooled human liver microsomes (0.2 mg/mL); from tissue; host or cells: human liver microsomes (ultrapooled)
T3 sequence (O60656 26-530): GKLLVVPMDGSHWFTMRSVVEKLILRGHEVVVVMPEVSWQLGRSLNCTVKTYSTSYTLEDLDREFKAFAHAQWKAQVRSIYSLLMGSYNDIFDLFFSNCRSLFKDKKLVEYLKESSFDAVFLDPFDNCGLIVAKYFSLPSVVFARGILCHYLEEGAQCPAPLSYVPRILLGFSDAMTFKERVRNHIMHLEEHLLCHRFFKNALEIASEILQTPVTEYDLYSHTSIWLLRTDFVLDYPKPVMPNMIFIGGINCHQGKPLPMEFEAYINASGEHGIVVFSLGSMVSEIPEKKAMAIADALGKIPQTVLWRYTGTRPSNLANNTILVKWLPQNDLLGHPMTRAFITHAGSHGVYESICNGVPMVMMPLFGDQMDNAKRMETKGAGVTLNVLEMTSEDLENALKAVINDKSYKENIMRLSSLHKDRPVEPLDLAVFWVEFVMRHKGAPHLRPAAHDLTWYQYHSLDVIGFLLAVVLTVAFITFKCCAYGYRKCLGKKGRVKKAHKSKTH
Description: as §1

[1] = rats, intravenous [3H]-mertansine 0.2 mg/kg, cited from earlier work
UGT1A3 = biological target: T4, UGT1A3 (Homo sapiens, UniProt P35503); assay: Inhibition of UGT1A3-catalyzed chenodeoxycholic acid 24-acyl-β-glucuronidation in ultrapooled human liver microsomes; assay type: in vitro ADME
T4 construct: ultrapooled human liver microsomes (0.2 mg/mL); from tissue; host or cells: human liver microsomes (ultrapooled)
T4 sequence (P35503 29-534): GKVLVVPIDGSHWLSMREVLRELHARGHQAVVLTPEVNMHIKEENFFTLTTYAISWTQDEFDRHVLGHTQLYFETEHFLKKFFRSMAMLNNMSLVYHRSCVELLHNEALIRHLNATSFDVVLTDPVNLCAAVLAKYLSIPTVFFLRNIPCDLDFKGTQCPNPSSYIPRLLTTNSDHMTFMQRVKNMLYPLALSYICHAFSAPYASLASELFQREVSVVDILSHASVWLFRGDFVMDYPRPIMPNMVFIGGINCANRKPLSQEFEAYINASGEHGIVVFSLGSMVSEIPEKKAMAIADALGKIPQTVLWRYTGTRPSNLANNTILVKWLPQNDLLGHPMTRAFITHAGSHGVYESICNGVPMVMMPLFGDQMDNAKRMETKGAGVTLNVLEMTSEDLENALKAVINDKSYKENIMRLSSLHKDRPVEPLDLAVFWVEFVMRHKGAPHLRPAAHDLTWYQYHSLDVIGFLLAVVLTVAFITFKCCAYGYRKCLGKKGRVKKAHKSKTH
Description: as §1, with “Reactions were terminated by adding 50 μL of ice-cold acetonitrile containing internal standards (IS, propofol glucuronide for set A and meloxicam for set B). Incubation mixtures were centrifuged at 13,000 g for 8 min at 4 °C.” left out
The LC-MS/MS system was comprised of an Agilent 6495 triple quadrupole mass spectrometer coupled with an Agilent 1290 Infinity system (Agilent Technologies, Wilmington, DE, USA). […] The electrospray ionization (ESI) source settings in both positive and negative ion modes were as follows: gas temperature, 200 °C; gas flow, 14 L/min; nebulizer, 40 psi; sheath gas temperature, 380 °C; sheath gas flow, 11 L/min; capillary voltage, 4500 V; and nozzle voltage, 500 V. Each metabolite was quantified via selected reaction monitoring in the negative ion mode (chenodeoxycholic acid 24-acyl-β-glucuronide, m/z 567.1 to 391.2; mycophenolic acid β-D-glucuronide, m/z 495.0 to 319.0; propofol glucuronide (IS), m/z 353.0 to 177.0) and in the positive ion mode (SN-38 glucuronide, m/z 568.9 to 392.9; trifluoperazine N-β-D-glucuronide, m/z 583.9 to 407.9; N-acetylserotonin β-D-glucuronide, m/z 394.0 to 219.0; naloxone 3-β-D-glucuronide, m/z 503.9 to 309.9; meloxicam (IS), m/z 351.9 to 115.0). […]

[2] = human liver microsomes, mertansine at 50 µM

T1 sequence (P16662 24-529): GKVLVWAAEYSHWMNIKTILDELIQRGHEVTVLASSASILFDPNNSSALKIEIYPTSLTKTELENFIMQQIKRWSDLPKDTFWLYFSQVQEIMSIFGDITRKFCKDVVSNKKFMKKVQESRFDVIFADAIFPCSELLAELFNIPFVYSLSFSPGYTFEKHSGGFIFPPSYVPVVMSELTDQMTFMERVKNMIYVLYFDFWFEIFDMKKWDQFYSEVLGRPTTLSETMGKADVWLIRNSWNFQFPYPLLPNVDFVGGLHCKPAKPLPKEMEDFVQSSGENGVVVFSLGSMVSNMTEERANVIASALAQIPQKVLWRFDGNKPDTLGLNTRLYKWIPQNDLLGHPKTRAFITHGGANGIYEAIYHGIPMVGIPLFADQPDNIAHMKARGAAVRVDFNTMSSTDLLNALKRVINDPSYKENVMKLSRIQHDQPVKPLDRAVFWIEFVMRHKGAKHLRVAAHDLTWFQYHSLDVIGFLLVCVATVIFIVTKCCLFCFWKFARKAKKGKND

For `COc1cc2cc(c1Cl)N(C)C(=O)CC(OC(=O)C(C)N(C)C(=O)CCS)C1(C)OC1C(C)C1CC(O)(NC(=O)O1)C(OC)C=CC=C(C)C2` (stereo not shown) [mertansine, Mertansine], the “Inhibition of UGT2B7 enzyme activity” value (UGT2B7; [2]) is listed as “no inhibition; also recorded: negligibly inhibited”, the “IC50, naloxone 3-β-D-glucuronidation (UGT2B7)” value (UGT2B7; ultrapooled human liver microsomes, 1 µM naloxone (cocktail)) is listed as “No inhibition” and the pKi (CYP2C8) is listed as 4.96. The “Inhibition of UGT1A6 enzyme activity” value (UGT1A6; [2]) was “no inhibition; also recorded: negligibly inhibited”, the “IC50, N-acetylserotonin β-D-glucuronidation (UGT1A6)” value (UGT1A6; ultrapooled human liver microsomes, 1 µM N-acetylserotonin (cocktail)) was “No inhibition” and the “Inhibition of UGT1A9 enzyme activity” value (UGT1A9; [2]) was “no inhibition; also recorded: negligibly inhibited”. The “IC50, mycophenolic acid β-D-glucuronidation (UGT1A9)” value (UGT1A9; ultrapooled human liver microsomes, 0.2 µM mycophenolic acid (cocktail)) was “No inhibition”, the Tissue-to-blood radioactivity ratios ([1]; highly perfused organs, for 24 h) was 1~11 and the “Biliary excretion of dosed radioactivity” value ([1]; over 72 h) was ~ 46%. The “Dosed radioactivity recovered in urine” value ([1]; over 120 h) was 5%, the “Inhibition Mode, UGT1A3” value (UGT1A3; human liver microsomes, Dixon plot) was “competitively inhibited; also recorded: competitive inhibitor” and the pKi (UGT1A3; human liver microsomes, chenodeoxycholic acid 0.5–5 µM) was 5.37. The pIC50 (UGT1A3; ultrapooled human liver microsomes, 2 µM chenodeoxycholic acid (cocktail)) was 5.19.
